{"source": "patent US20240058344A1", "about": "“METHODS OF TREATING NEURODEGENERATIVE DISORDERS AND STAT3-LINKED CANCERS USING SUPPRESSORS OF ELECTRON LEAK” (Cornell University, priority 2020, published 2024)", "assay": "Drug tolerance during chronic oral administration (body weight, behavior)", "type": "in vivo, mice", "experimental": "(FIGS. 1C-D) Body weights of male nontransgenic (NTG) or hTauP301S mice treated with S3QEL2 (FIG. 1C) (S3, 5 mg/kg/day, PO in almond butter), S1QEL1.1 (FIG. 1D) (10 mg/kg/day, PO in almond butter), or vehicle. (FIG. 1E) Levels of S3QEL2 in the mouse brain following almond butter (AB) or chow administration at indicated doses for 21 days. (n=15 mice per dose). n=3-15 wild-type mice per condition. (FIG. 1F) Body weight of 4-5-month-old wild-type male mice treated with formulated chow containing S3QEL2 at indicated doses and durations (n=15 mice per dose).\nA series of pharmacokinetic and drug tolerance experiments with S3QEL2 in adult wild-type and transgenic hTauP301S mice was first performed. Different administration routes and drug formulations were tested. […] Chow that was formulated to deliver 0, 5, 15, or 30 mg/kg/day of S3QEL2 was also tested."}
{"smiles": "CCCN(CCC)c1ncnc2c1cnn2-c1ccc(C)c(C)c1", "note": "[S3QEL2]", "values": [{"measurement": "Adverse health effects such as weight loss or altered behavior", "setting": "PO in almond butter, S3QEL2 5 mg/kg/day, S1QEL1.1 10 mg/kg/day, NTG or hTauP301S mice", "result": "did not result in obvious adverse health effects"}, {"measurement": "Tolerability of chow administration", "setting": "chow 5, 15 or 30 mg/kg/day, high doses and long treatment durations, adult wild-type mice", "result": "tolerated well"}]}
